From ChEMBL document CHEMBL1671652, “Efficacy of piperacillin combined with the Penem beta-lactamase inhibitor BLI-489 in murine models of systemic infection” (2009)
Converted amounts (≈) assume the structure as drawn.

Experiments:
[1] = system: Enterobacter cloacae; test: Antimicrobial activity against AmpC beta-lactamase producing Enterobacter cloacae GC 4142 infected in CD-1 mouse treated 30 and 150 min postinfection in presence of 8:1 ratio of compound to beta-lactamase inhibitor BLI-489; assay type: functional
[2] = system: Pseudomonas aeruginosa; test: Antimicrobial activity against AmpC beta-lactamase producing Pseudomonas aeruginosa GC 1764 infected in CD-1 mouse treated 30 and 150 mins postinfection in presence of 8:1 ratio of compound to beta-lactamase inhibitor BLI-489; assay type: functional
[3] = system: Escherichia coli; test: Antimicrobial activity against TEM-1 beta-lactamase producing Escherichia coli GC 6265 infected in CD-1 mouse treated 30 mins postinfection in presence of 14:1 ratio of compound to beta-lactamase inhibitor BLI-489; assay type: functional; settings: GC 6265, 0.5 h
[4] = system: Klebsiella pneumoniae; test: Antimicrobial activity against SHV-1and SHV-5 beta-lactamase producing Klebsiella pneumoniae GAR 7978 by broth microdilution method; assay type: functional
[5] = system: Enterobacter cloacae; test: Antimicrobial activity against AmpC beta-lactamase producing Enterobacter cloacae GC 4142 infected in CD-1 mouse treated 30 and 150 min postinfection in presence of 2:1 ratio of compound to beta-lactamase inhibitor BLI-489; assay type: functional
[6] = system: Salmonella typhimurium; test: Antimicrobial activity against CTX-M-5 beta-lactamase producing Salmonella enterica serovar Typhimurium GC 4195 by broth microdilution method in presence of 8:1 ratio of compound to beta-lactamase inhibitor BLI-489; assay type: functional, Salmonella enterica subsp. enterica serovar Typhimurium
[7] = system: Klebsiella pneumoniae; test: Antimicrobial activity against SHV-1and SHV-5 beta-lactamase producing Klebsiella pneumoniae GAR 7978 by broth microdilution method in presence of beta-lactamase inhibitor Tazobactam; assay type: functional
[8] = system: Pseudomonas aeruginosa; test: Antimicrobial activity against AmpC beta-lactamase producing Pseudomonas aeruginosa GC 1764 by broth microdilution method in presence of beta-lactamase inhibitor Tazobactam; assay type: functional
[9] = system: Escherichia coli; test: Antimicrobial activity against TEM-1 beta-lactamase producing Escherichia coli GC 6265 infected in CD-1 mouse treated 30 mins postinfection in presence of 4:1 ratio of compound to beta-lactamase inhibitor BLI-489; assay type: functional; settings: GC 6265, 0.5 h
[10] = system: Klebsiella pneumoniae; test: Antimicrobial activity against SHV-11 beta-lactamase producing Klebsiella pneumoniae GAR 7693 infected in CD-1 mouse treated 30 and 150 mins postinfection; assay type: functional
[11] = system: Escherichia coli; test: Antimicrobial activity against ACT-1 beta-lactamase producing Escherichia coli GC 2814 by broth microdilution method in presence of 8:1 ratio of compound to beta-lactamase inhibitor BLI-489; assay type: functional
[12] = system: Escherichia coli; test: Antimicrobial activity against ACT-1 beta-lactamase producing Escherichia coli GC 2814 by broth microdilution method; assay type: functional
[13] = system: Klebsiella pneumoniae; test: Antimicrobial activity against SHV-11beta-lactamase producing Klebsiella pneumoniae GAR 7693 infected in CD-1 mouse treated 30 and 150 mins postinfection in presence of 8:1 ratio of compound to beta-lactamase inhibitor BLI-489; assay type: functional
[14] = system: Escherichia coli; test: Antimicrobial activity against ACT-1 beta-lactamase producing Escherichia coli GC 2814 infected in CD-1 mouse treated 30 and 150 mins postinfection in presence of 8:1 ratio of compound to beta-lactamase inhibitor BLI-489; assay type: functional
[15] = system: Escherichia coli; test: Antimicrobial activity against TEM-1 beta-lactamase producing Escherichia coli GC 6265 infected in CD-1 mouse treated 30 mins postinfection in presence of 10:1 ratio of compound to beta-lactamase inhibitor BLI-489; assay type: functional; settings: GC 6265, 0.5 h
[16] = system: Staphylococcus aureus; test: Antimicrobial activity against penicillinase producing Staphylococcus aureus GC 6468 by broth microdilution method in presence of 8:1 ratio of compound to beta-lactamase inhibitor BLI-489; assay type: functional
[17] = system: Escherichia coli; test: Antimicrobial activity against TEM-10 beta-lactamase producing Escherichia coli GC 2022 infected in CD-1 mouse treated 30 mins postinfection in presence of beta-lactamase inhibitor Tazobactam; assay type: functional; settings: GC 2022, 0.5 h
[18] = system: Escherichia coli; test: Antimicrobial activity against OXA-1 beta-lactamase producing Escherichia coli GAR 5946 by broth microdilution method; assay type: functional
[19] = system: Escherichia coli; test: Antimicrobial activity against TEM-10 beta-lactamase producing Escherichia coli GC 2022 by broth microdilution method; assay type: functional
[20] = system: Staphylococcus aureus; test: Antimicrobial activity against penicillinase producing Staphylococcus aureus GC 6468 by broth microdilution method; assay type: functional
[21] = system: Pseudomonas aeruginosa; test: Antimicrobial activity against AmpC beta-lactamase producing Pseudomonas aeruginosa GC 1764 by broth microdilution method in presence of 8:1 ratio of compound to beta-lactamase inhibitor BLI-489; assay type: functional
[22] = system: Staphylococcus aureus; test: Antimicrobial activity against penicillinase producing Staphylococcus aureus GC 6468 by broth microdilution method in presence of beta-lactamase inhibitor Tazobactam; assay type: functional
[23] = system: Escherichia coli; test: Antimicrobial activity against TEM-1 beta-lactamase producing Escherichia coli GC 6265 infected in CD-1 mouse treated 30 mins postinfection in presence of 8:1 ratio of compound to beta-lactamase inhibitor BLI-489; assay type: functional; settings: GC 6265, 0.5 h
[24] = system: Enterobacter cloacae; test: Antimicrobial activity against AmpC beta-lactamase producing Enterobacter cloacae GC 4142 by broth microdilution method in presence of beta-lactamase inhibitor Tazobactam; assay type: functional
[25] = system: Salmonella typhimurium; test: Antimicrobial activity against CTX-M-5 beta-lactamase producing Salmonella enterica serovar Typhimurium GC 4195 infected in CD-1 mouse treated 30 and 150 mins postinfection in presence of beta-lactamase inhibitor Tazobactam; assay type: functional, Salmonella enterica subsp. enterica serovar Typhimurium
[26] = system: Escherichia coli; test: Antimicrobial activity against TEM-10 beta-lactamase producing Escherichia coli GC 2022 by broth microdilution method in presence of beta-lactamase inhibitor Tazobactam; assay type: functional
[27] = system: Enterobacter cloacae; test: Antimicrobial activity against AmpC beta-lactamase producing Enterobacter cloacae GC 4142 infected in CD-1 mouse treated 30 and 150 min postinfection in presence of 12:1 ratio of compound to beta-lactamase inhibitor BLI-489; assay type: functional
[28] = system: Klebsiella pneumoniae; test: Antimicrobial activity against SHV-1and SHV-5 beta-lactamase producing Klebsiella pneumoniae GAR 7978 infected in CD-1 mouse treated 30 and 150 mins postinfection; assay type: functional
[29] = system: Salmonella typhimurium; test: Antimicrobial activity against CTX-M-5 beta-lactamase producing Salmonella enterica serovar Typhimurium GC 4195 by broth microdilution method in presence of beta-lactamase inhibitor Tazobactam; assay type: functional, Salmonella enterica subsp. enterica serovar Typhimurium
[30] = system: Escherichia coli; test: Antimicrobial activity against TEM-10 beta-lactamase producing Escherichia coli GC 2022 by broth microdilution method in presence of 8:1 ratio of compound to beta-lactamase inhibitor BLI-489; assay type: functional
[31] = system: Escherichia coli; test: Antimicrobial activity against TEM-1 beta-lactamase producing Escherichia coli GC 6265 by broth microdilution method in presence of 8:1 ratio of compound to beta-lactamase inhibitor BLI-489; assay type: functional
[32] = system: Pseudomonas aeruginosa; test: Antimicrobial activity against AmpC beta-lactamase producing Pseudomonas aeruginosa GC 1764 by broth microdilution method; assay type: functional
[33] = system: Klebsiella pneumoniae; test: Antimicrobial activity against SHV-11 beta-lactamase producing Klebsiella pneumoniae GAR 7693 by broth microdilution method in presence of beta-lactamase inhibitor Tazobactam; assay type: functional
[34] = system: Escherichia coli; test: Antimicrobial activity against TEM-10 beta-lactamase producing Escherichia coli GC 2022 infected in CD-1 mouse treated 30 mins postinfection in presence of 8:1 ratio of compound to beta-lactamase inhibitor BLI-489; assay type: functional; settings: GC 2022, 0.5 h
[35] = system: Klebsiella pneumoniae; test: Antimicrobial activity against SHV-11 beta-lactamase producing Klebsiella pneumoniae GAR 7693 by broth microdilution method; assay type: functional

SMILES: CCN1CCN(C(=O)N[C@@H](C(=O)N[C@@H]2C(=O)N3[C@@H]2SC(C)(C)[C@@H]3C(=O)O)c2ccccc2)C(=O)C1=O [PIPERACILLIN]
- ED50 [1]: 32 mg/kg
- ED50 [2]: 103 mg/kg
- ED50 [3]: 16 mg/kg
- MIC [4]: > 64 µg/mL
- ED50 [5]: 31 mg/kg
- MIC [6]: > 64 µg/mL
- MIC [7]: > 64 µg/mL
- MIC [8]: 32 µg/mL
- ED50 [9]: 12 mg/kg
- ED50 [10]: 193 mg/kg
- MIC [11]: > 64 µg/mL
- MIC [12]: 2 µg/mL (≈ 3.86 µM)
- ED50 [13]: 23 mg/kg
- ED50 [14]: 13 mg/kg
- ED50 [15]: 12 mg/kg
- MIC [16]: 1 µg/mL
- ED50 [17]: 25 mg/kg
- MIC [18]: 2 µg/mL (≈ 3.86 µM)
- MIC [19]: 1 µg/mL (≈ 1.93 µM)
- MIC [20]: > 64 µg/mL
- MIC [21]: 4 µg/mL
- MIC [22]: 1 µg/mL
- ED50 [23]: 12 mg/kg
- MIC [24]: 4 µg/mL
- ED50 [25]: 152 mg/kg
- MIC [26]: 2 µg/mL
- ED50 [27]: 60 mg/kg
- ED50 [28]: 245 mg/kg
- MIC [29]: > 64 µg/mL
- MIC [30]: > 64 µg/mL
- MIC [31]: 4 µg/mL
- MIC [32]: > 64 µg/mL
- MIC [33]: > 64 µg/mL
- ED50 [34]: 40 mg/kg
- MIC [35]: 2 µg/mL (≈ 3.86 µM)
